Data reported in ChEMBL document CHEMBL5104195, “Discovery of Orally Bioavailable SOS1 Inhibitors for Suppressing KRAS-Driven Carcinoma” (J Med Chem, 2022).

What was measured:
[1] = Toxicity in BALB/c nude mouse xenografted with human MIA PaCa-21 cells expressing KRAS G12C mutant assessed as animal death at 50 mg/kg, po qd measured on day 21; conditions: in vivo, 504 h
[2] = rat, in vivo, po, 10 mg/kg, 24 h
in vitro [3] = conditions: human, liver microsomes
[4] = dog, in vivo, po, 20 mg/kg, 24 h
Cytochrome P450 2C9 [5] = biological target: T1, Cytochrome P450 2C9 (Homo sapiens, UniProt P11712); test: Inhibition of CYP2C9 in human liver microsomes at 10 uM using diclofenac as substrate preincubated for 10 mins followed by NADPH addition by LC/MS analysis
[6] = Cardiotoxicity in Patient-specific iPSC-derived cardiomyocytes assessed as decrease in maximum depolarization rate of action potential at 0.03 to 3 uM by patch clamp assay; conditions: human, cardiac muscle cell
in vivo [7] = conditions: ICR, mouse, po, 50 mg/kg
[8] = dog, in vivo, po, 20 mg/kg, 24 h; remark: listed apart in the source
[9] = Cardiotoxicity in Patient-specific iPSC-derived cardiomyocytes assessed as decrease in spontaneous beating of myocardial cell at 10 uM by patch clamp assay; conditions: human, cardiac muscle cell
in vivo [10] = conditions: Sprague-Dawley, rat, po, 10 mg/kg
[11] = rat, in vivo, po, 10 mg/kg, 24 h; remark: listed apart in the source
in vitro [12] = conditions: rat, liver microsomes
[13] = Plasma protein binding in rat at 2 uM preincubated for 1 hr by balanced dialysis based LC-MS/MS analysis
[14] = rat, in vivo, po, 10 mg/kg, 24 h; remark: listed apart in the source
[15] = Cardiotoxicity in Patient-specific iPSC-derived cardiomyocytes assessed as decrease in spontaneous beating of myocardial cell at 3 uM by patch clamp assay; conditions: human, cardiac muscle cell
[16] = MRT in ICR mouse at 50 mg/kg, po measured up to 24 hrs by LC-MS/MS analysis; conditions: in vivo
[17] = rat, in vivo, iv, 2 mg/kg, 24 h
in vivo [18] = conditions: ICR, mouse, po, 50 mg/kg; remark: listed apart in the source
Cytochrome P450 2C8 [19] = biological target: T2, Cytochrome P450 2C8 (Homo sapiens, UniProt P10632); test: Inhibition of CYP2C8 in human liver microsomes at 10 uM using amodiaquine as substrate preincubated for 10 mins followed by NADPH addition by LC/MS analysis
T2 sequence (P10632 whole entry): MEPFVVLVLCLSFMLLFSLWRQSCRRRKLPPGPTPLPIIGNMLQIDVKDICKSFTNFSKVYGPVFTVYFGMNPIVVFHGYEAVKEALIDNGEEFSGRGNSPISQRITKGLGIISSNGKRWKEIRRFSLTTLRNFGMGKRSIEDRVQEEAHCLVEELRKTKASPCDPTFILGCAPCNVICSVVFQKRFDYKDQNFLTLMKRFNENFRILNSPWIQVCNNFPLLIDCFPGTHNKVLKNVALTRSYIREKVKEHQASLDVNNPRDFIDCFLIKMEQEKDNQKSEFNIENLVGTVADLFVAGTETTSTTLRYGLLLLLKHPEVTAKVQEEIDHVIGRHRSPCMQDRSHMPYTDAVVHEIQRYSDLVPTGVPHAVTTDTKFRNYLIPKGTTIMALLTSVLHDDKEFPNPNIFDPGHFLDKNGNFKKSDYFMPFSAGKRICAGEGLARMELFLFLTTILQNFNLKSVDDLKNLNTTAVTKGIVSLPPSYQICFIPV

[20] = Toxicity in BALB/c nude mouse xenografted with human MIA PaCa-21 cells expressing KRAS G12C mutant assessed as weight loss at 50 mg/kg, po qd measured on day 21; conditions: in vivo
in vivo [21] = conditions: ICR, mouse, po, 50 mg/kg; remark: listed apart in the source
[22] = Half life in overnight fasted Beagle dog at 20 mg/kg, po measured upto 24 hrs by LC/MS/MS analysis; conditions: in vivo
in vitro [23] = conditions: mouse, liver microsomes
Cytochrome P450 1A2 = biological target: T3, Cytochrome P450 1A2 (Homo sapiens, UniProt P05177); test: Inhibition of CYP1A2 in human liver microsomes at 10 uM using phenacetin as substrate preincubated for 10 mins followed by NADPH addition by LC/MS analysis
T3 sequence (P05177 whole entry): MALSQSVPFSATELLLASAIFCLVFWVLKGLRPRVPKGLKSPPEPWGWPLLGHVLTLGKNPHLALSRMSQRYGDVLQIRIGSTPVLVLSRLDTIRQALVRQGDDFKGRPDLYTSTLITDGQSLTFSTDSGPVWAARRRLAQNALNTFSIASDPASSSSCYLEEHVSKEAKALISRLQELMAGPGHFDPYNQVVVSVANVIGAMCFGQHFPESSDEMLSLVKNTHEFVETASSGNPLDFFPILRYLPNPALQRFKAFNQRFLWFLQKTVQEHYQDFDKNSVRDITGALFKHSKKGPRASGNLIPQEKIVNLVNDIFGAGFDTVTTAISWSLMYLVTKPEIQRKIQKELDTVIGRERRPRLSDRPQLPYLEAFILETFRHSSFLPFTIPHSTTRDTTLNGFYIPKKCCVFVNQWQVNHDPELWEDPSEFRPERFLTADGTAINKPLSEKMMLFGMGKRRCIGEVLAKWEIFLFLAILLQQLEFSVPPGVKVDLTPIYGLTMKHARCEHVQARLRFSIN

[24] = Elimination rate constant in ICR mouse at 50 mg/kg, po measured up to 24 hrs by LC-MS/MS analysis; conditions: in vivo
[25] = Half life in ICR mouse at 50 mg/kg, po measured up to 24 hrs by LC-MS/MS analysis; conditions: in vivo
Cytochrome P450 2C8 [26] = biological target: T2, Cytochrome P450 2C8; test: Time-dependent inhibition of CYP2C8 (unknown origin) at 2 ul pre-incubated for 30 mins in presence or absence of NADPH incubated for 10 mins by LC/MS analysis
in vitro [27] = conditions: rhesus monkey, liver microsomes
Cytochrome P450 3A4 [28] = biological target: T4, Cytochrome P450 3A4 (Homo sapiens, UniProt P08684); test: Inhibition of CYP3A4 in human liver microsomes at 10 uM using midazolam as substrate preincubated for 10 mins followed by NADPH addition by LC/MS analysis
[29] = rat, in vivo, iv, 2 mg/kg, 24 h; remark: listed apart in the source
Cytochrome P450 2D6 [30] = biological target: T5, Cytochrome P450 2D6 (Homo sapiens, UniProt P10635); test: Time-dependent inhibition of CYP2D6 (unknown origin) at 2 ul pre-incubated for 30 mins in presence or absence of NADPH incubated for 10 mins by LC/MS analysis
in vitro [31] = conditions: dog, liver microsomes
Cytochrome P450 2D6 [32] = biological target: T5, Cytochrome P450 2D6; test: Inhibition of CYP2D6 in human liver microsomes at 10 uM using dextromethorphan as substrate preincubated for 10 mins followed by NADPH addition by LC/MS analysis
[33] = dog, in vivo, po, 20 mg/kg, 24 h; remark: listed apart in the source
[34] = Cardiotoxicity in Patient-specific iPSC-derived cardiomyocytes assessed as decrease in action potential duration by patch clamp assay; type: toxicity, cell-based; conditions: human, cardiac muscle cell
[35] = Apparent permeability across basolateral side to apical side in dog MDCKII-MDR1 cells; conditions: MDCK-MDR1
[36] = Apparent permeability across apical to basolateral side in dog MDCKII-MDR1 cells; conditions: MDCK-MDR1
[37] = Plasma protein binding in dog at 2 uM preincubated for 1 hr by balanced dialysis based LC-MS/MS analysis
[38] = Half life in Sprague-Dawley rat at 10 mg/kg, po measured upto 24 hrs by LC/MS/MS analysis; conditions: in vivo
[39] = Half life in Sprague-Dawley rat at 2 mg/kg, iv measured upto 24 hrs by LC/MS/MS analysis; conditions: in vivo
Cytochrome P450 2C9 [40] = biological target: T1, Cytochrome P450 2C9; test: Time-dependent inhibition of CYP2C9 (unknown origin) at 2 ul pre-incubated for 30 mins in presence or absence of NADPH incubated for 10 mins by LC/MS analysis
Cytochrome P450 3A4 [41] = biological target: T4, Cytochrome P450 3A4; test: Time-dependent inhibition of CYP3A4 (unknown origin) at 2 ul pre-incubated for 30 mins in presence or absence of NADPH incubated for 10 mins by LC/MS analysis
[42] = rat, in vivo, iv, 2 mg/kg, 24 h; remark: listed apart in the source
[43] = Plasma protein binding in mouse at 2 uM preincubated for 1 hr by balanced dialysis based LC-MS/MS analysis
[44] = Plasma protein binding in monkey at 2 uM preincubated for 1 hr by balanced dialysis based LC-MS/MS analysis; conditions: rhesus monkey

T5 sequence (P10635 whole entry): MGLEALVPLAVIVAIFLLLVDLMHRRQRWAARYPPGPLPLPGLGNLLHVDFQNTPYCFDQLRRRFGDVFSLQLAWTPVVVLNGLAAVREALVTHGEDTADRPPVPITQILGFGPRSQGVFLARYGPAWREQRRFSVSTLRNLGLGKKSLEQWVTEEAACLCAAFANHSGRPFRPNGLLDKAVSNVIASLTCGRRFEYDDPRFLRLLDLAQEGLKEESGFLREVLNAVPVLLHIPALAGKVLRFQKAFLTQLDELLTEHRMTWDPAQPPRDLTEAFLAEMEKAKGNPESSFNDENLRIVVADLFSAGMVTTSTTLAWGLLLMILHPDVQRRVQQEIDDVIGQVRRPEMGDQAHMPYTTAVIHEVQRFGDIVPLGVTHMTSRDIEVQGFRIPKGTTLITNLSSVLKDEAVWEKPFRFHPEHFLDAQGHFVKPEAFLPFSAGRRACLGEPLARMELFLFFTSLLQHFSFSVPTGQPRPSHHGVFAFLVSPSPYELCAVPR
T1 sequence (P11712 whole entry): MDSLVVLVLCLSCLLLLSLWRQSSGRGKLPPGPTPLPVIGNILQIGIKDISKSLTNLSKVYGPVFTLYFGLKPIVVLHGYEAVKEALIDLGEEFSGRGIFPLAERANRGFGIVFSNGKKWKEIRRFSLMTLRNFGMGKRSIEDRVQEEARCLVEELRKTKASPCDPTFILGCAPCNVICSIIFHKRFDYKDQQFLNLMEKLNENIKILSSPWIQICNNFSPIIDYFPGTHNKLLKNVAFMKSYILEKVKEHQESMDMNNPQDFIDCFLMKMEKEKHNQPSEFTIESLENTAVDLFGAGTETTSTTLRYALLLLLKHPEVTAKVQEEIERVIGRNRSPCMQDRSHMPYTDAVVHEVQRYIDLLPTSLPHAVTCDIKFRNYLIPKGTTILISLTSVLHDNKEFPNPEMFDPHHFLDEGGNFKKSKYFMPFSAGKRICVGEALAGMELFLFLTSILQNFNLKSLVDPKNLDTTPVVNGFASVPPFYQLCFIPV
T4 sequence (P08684 whole entry): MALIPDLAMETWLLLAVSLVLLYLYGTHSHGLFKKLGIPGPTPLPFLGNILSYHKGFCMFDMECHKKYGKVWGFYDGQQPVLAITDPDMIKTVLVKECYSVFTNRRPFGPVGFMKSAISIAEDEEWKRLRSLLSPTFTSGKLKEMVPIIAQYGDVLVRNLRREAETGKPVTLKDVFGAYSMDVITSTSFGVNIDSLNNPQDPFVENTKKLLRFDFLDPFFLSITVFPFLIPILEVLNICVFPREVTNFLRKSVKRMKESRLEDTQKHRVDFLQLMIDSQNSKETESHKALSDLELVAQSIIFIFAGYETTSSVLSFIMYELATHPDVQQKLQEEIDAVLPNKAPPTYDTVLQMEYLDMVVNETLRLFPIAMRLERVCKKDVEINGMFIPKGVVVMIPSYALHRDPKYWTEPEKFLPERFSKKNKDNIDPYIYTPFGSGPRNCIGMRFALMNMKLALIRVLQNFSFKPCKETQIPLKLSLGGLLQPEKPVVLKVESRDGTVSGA

## Cc1nc(N[C@H](C)c2cccc(C(F)F)c2F)c2cc3c(cc2n1)OCC[C@H]1CN(CC(F)(F)F)CCN31
[1]
  Activity: Non-Toxic
[2]
  Tmax: 2.33 h
In vitro [3]
  CLint scaled at 1 h, 1 µM: 442 mL/min/kg
[4]
  AUC: 1322 ng·h/mL
Cytochrome P450 2C9 [5]
  IC50: 15.4 µM
[6]
  Activity: Toxic
In vivo [7]
  AUC at 24 h: 19900 ng·h/mL
[8]
  Cmax: 232 ng/mL
[9]
  Activity: Toxic
In vivo [10]
  bioavailability at 24 h: 18.8%
[11]
  AUC: 563 ng·h/mL
In vitro [12]
  CLint scaled at 1 h, 1 µM: 516 mL/min/kg
[13]
  fraction unbound at 1 h, 2 µM: 0.001
[14]
  Cmax: 109 ng/mL
[15]
  Activity: Toxic
[16]
  MRT at 24 h: 5.5 h
[17]
  Tmax: 4.8 min
In vivo [18]
  Tmax at 24 h: 0.833 h
Cytochrome P450 2C8 [19]
  IC50: 45.2 µM
[20]
  Activity: Non-Toxic
In vivo [21]
  Cmax at 24 h: 2260 ng/mL
[22]
  t1/2: 6.74 h
In vitro [23]
  CLint scaled at 1 h, 1 µM: 436 mL/min/kg
Cytochrome P450 1A2
  IC50: > 100 µM
[24]
  k el at 24 h: 4.75e-05 s⁻¹
[25]
  half-life at 24 h: 4.13 h
Cytochrome P450 2C8 [26]
  IC50: 39.1 µM
In vitro [27]
  CLint scaled at 1 h, 1 µM: 396 mL/min/kg
Cytochrome P450 3A4 [28]
  IC50: > 100 µM
[29]
  Cmax: 518 ng/mL
Cytochrome P450 2D6 [30]
  IC50: 4.3 µM
In vitro [31]
  CLint scaled at 1 h, 1 µM: 12 mL/min/kg
Cytochrome P450 2D6 [32]
  IC50: 6.1 µM
[33]
  Tmax: 1.17 h
[34]
  Activity: Toxic
[35]
  Papp B→A: 0.78 ×10⁻⁶ cm/s
[36]
  Papp A→B: 0.26 ×10⁻⁶ cm/s
[37]
  fraction unbound at 1 h, 2 µM: 0.002
[38]
  t1/2: 2 h
[39]
  t1/2: 5.35 h
Cytochrome P450 2C9 [40]
  IC50: 14.6 µM
Cytochrome P450 3A4 [41]
  IC50: > 100 µM
[42]
  AUC: 596 ng·h/mL
[43]
  fraction unbound at 1 h, 2 µM: 0.001
[44]
  fraction unbound at 1 h, 2 µM: 0.001
